We go through five molecules from ChEMBL document CHEMBL1132901, “Synthesis and structure-activity relationships of quaternary ammonium cephalosporins with 3-pyrazolylpyridinium derivatives” (2000).

Converted amounts (≈) assume the structure as drawn.

Test [1] concerns Enterobacter cloacae. The experiment in a line: In vitro antimicrobial activity against Enterobacter 1321 E. The format is functional.
Test [2] relates to Escherichia coli. As to the kind of experiment: In vitro antimicrobial activity against Escherichia coli 055. The format is functional.
Test [3] concerns Escherichia coli. As to the kind of experiment: In vitro antimicrobial activity against Escherichia coli 1507E. The format is functional.
The subject of test [4] is Escherichia coli. The experiment in a line: In vitro antimicrobial activity against Escherichia coli DC 0. The format is functional.
Test [5] deals with Escherichia coli. As to the kind of experiment: In vitro antimicrobial activity against Escherichia coli DC 2. The format is functional.
For test [6], the system named is Escherichia coli. The experiment in a line: In vitro antimicrobial activity against Escherichia coli TEM. The format is functional.
The test system of test [7] is Enterobacter cloacae. As to the kind of experiment: In vitro antimicrobial activity against Enterobacter cloacae P99. The format is functional.
For test [8], the system named is Klebsiella oxytoca. The experiment in a line: In vitro antimicrobial activity against Klebsiella oxytoca 1082. The format is functional.
Test [9] deals with Klebsiella aerogenes. As to the kind of experiment: In vitro antimicrobial activity against Klebsiella aerogenes 1522 E. The format is functional.
The test system of test [10] is Pseudomonas aeruginosa. The experiment in a line: In vitro antimicrobial activity against Pseudomonas aeruginosa 1771. The format is functional.
Test [11] concerns Pseudomonas aeruginosa. As to the kind of experiment: In vitro antimicrobial activity against Pseudomonas aeruginosa 1771 M. The format is functional.
The test system of test [12] is Pseudomonas aeruginosa. The experiment in a line: In vitro antimicrobial activity against Pseudomonas aeruginosa 9027. The format is functional.
Test [13] concerns Salmonella typhimurium. As to the kind of experiment: In vitro antimicrobial activity against Salmonella Typhimurium. The format is functional, Salmonella enterica subsp. enterica serovar Typhimurium. Conditions: Salmonella enterica.
The subject of test [14] is Streptococcus pyogenes. The experiment in a line: In vitro antimicrobial activity against Streptococcus pyogenes 77A. The format is functional.
For test [15], the system named is Streptococcus pyogenes. As to the kind of experiment: In vitro antimicrobial activity against Streptococcus pyogenes A 308. The format is functional.
In test [16] the test system is Streptococcus pyogenes. The experiment in a line: In vitro antimicrobial activity against Streptococcus pyogenes SG 511. The format is functional.
Test [17] relates to Staphylococcus aureus. As to the kind of experiment: In vitro antimicrobial activity against Methicillin resistant Staphylococcus aureus (MRSA). The format is functional.
Test [18] concerns Staphylococcus aureus. The experiment in a line: In vitro antimicrobial activity against Staphylococcus aureus 285. The format is functional.
Test [19] deals with Staphylococcus aureus. As to the kind of experiment: In vitro antimicrobial activity against Staphylococcus aureus 503. The format is functional.
Test [20] concerns Enterococcus faecium. The experiment in a line: In vitro antimicrobial activity against Streptococcus faecium MD 8b. The format is functional.
Test [21] deals with Pseudomonas aeruginosa. The experiment in a line: In vitro antimicrobial activity against Pseudomonas aeruginosa 1592 E. The format is functional.

On to `CO/N=C(/C(=O)N[C@@H]1C(=O)N2C(C(=O)[O-])=C(C[n+]3cccc(-c4cc(CO)nn4CCO)c3)CS[C@H]12)c1csc(N)n1`, for which the MIC in [1] is 0.098 µg/mL (≈ 0.159 µM); in [2], 0.098 µg/mL (≈ 0.159 µM); in [3], 0.391 µg/mL (≈ 0.636 µM); in [4], 0.195 µg/mL (≈ 0.317 µM); in test [5], 0.098 µg/mL (≈ 0.159 µM); in test [6] it was 0.781 µg/mL (≈ 1.27 µM). The MIC in test [7] is more than 50 µg/mL; in [8], 12.5 µg/mL (≈ 20.3 µM); in test [9] it was 0.195 µg/mL (≈ 0.317 µM); in test [10], 6.25 µg/mL (≈ 10.2 µM); in test [11] it was 0.781 µg/mL (≈ 1.27 µM); in test [12] it was 25 µg/mL (≈ 40.7 µM). The MIC in [13] was 0.391 µg/mL (≈ 0.636 µM); in test [14] it was 0.049 µg/mL (≈ 0.0797 µM); in test [15] it was 0.049 µg/mL (≈ 0.0797 µM); in [16], 6.25 µg/mL (≈ 10.2 µM); in [17], 25 µg/mL (≈ 40.7 µM); in test [18], 6.25 µg/mL (≈ 10.2 µM). For the same molecule, the values for the MIC in test [19], in [20] and in test [21] were 1.56 µg/mL (≈ 2.54 µM), 12.5 µg/mL (≈ 20.3 µM) and 12.5 µg/mL (≈ 20.3 µM), respectively.

Regarding `CO/N=C(/C(=O)N[C@@H]1C(=O)N2C(C(=O)[O-])=C(C[n+]3cccc(-c4cc(CO)[nH]n4)c3)CS[C@H]12)c1csc(N)n1`, the MIC turned out to be 0.049 µg/mL (≈ 0.0859 µM) in [1]; 0.049 µg/mL (≈ 0.0859 µM) in test [2]; 0.098 µg/mL (≈ 0.172 µM) in [3]; 0.049 µg/mL (≈ 0.0859 µM) in test [4]; 0.025 µg/mL (≈ 0.0438 µM) in test [5]; 0.195 µg/mL (≈ 0.342 µM) in [6]. Moreover, the MIC was more than 12.5 µg/mL in test [7]; 3.12 µg/mL (≈ 5.48 µM) in test [8]; 0.049 µg/mL (≈ 0.0859 µM) in test [9]; 1.56 µg/mL (≈ 2.74 µM) in [10]; 0.391 µg/mL (≈ 0.685 µM) in test [11]; 6.25 µg/mL (≈ 11 µM) in [12]. For the same molecule, the minimum inhibitory concentration (MIC) in test [13] amounted to 0.098 µg/mL (≈ 0.172 µM); in test [14], 0.013 µg/mL (≈ 0.0228 µM); in test [15], 0.025 µg/mL (≈ 0.0438 µM); in [16] it was 1.56 µg/mL (≈ 2.74 µM); in test [18], 1.56 µg/mL (≈ 2.74 µM); in test [19] it was 0.391 µg/mL (≈ 0.685 µM). In addition, the MIC in [20] and in test [21] was 3.12 µg/mL (≈ 5.48 µM) throughout.

Turning to `CO/N=C(/C(=O)N[C@@H]1C(=O)N2C(C(=O)[O-])=C(C[n+]3cccc(-c4cc[nH]n4)c3)CS[C@H]12)c1csc(N)n1`, the MIC worked out at 0.098 µg/mL (≈ 0.181 µM) in [1]; 0.049 µg/mL (≈ 0.0906 µM) in [2]; 0.195 µg/mL (≈ 0.361 µM) in test [3]; 0.098 µg/mL (≈ 0.181 µM) in [4]; 0.049 µg/mL (≈ 0.0906 µM) in test [5]; 0.195 µg/mL (≈ 0.361 µM) in [6]. Also, the minimal inhibitory concentration (MIC) was more than 25 µg/mL in test [7]; 6.25 µg/mL (≈ 11.6 µM) in test [8]; 0.098 µg/mL (≈ 0.181 µM) in test [9]; 6.25 µg/mL (≈ 11.6 µM) in [10]; 3.12 µg/mL (≈ 5.78 µM) in test [11]; 25 µg/mL (≈ 46.2 µM) in test [12]. Besides, the MIC in [13] came to 0.195 µg/mL (≈ 0.361 µM); in [14] it was 0.025 µg/mL (≈ 0.0462 µM); in [15] it was 0.049 µg/mL (≈ 0.0906 µM); in test [16] it was 3.12 µg/mL (≈ 5.78 µM); in [18], 3.12 µg/mL (≈ 5.78 µM); in [19], 0.781 µg/mL (≈ 1.44 µM). Further, the results for the MIC in test [20] and in test [21] were 6.25 µg/mL (≈ 11.6 µM) and 12.5 µg/mL (≈ 23.1 µM), respectively.

`CO/N=C(/C(=O)N[C@@H]1C(=O)N2C(C(=O)[O-])=C(C[n+]3cccc(-c4cc(C)[nH]n4)c3)CS[C@H]12)c1csc(N)n1`: the MIC in test [1] was found to be 0.013 µg/mL (≈ 0.0234 µM); in test [2] it was 0.025 µg/mL (≈ 0.0451 µM); in [3], 0.098 µg/mL (≈ 0.177 µM); in test [4], 0.025 µg/mL (≈ 0.0451 µM); in [5], 0.013 µg/mL (≈ 0.0234 µM); in test [6] it was 0.098 µg/mL (≈ 0.177 µM). Moreover, the minimal inhibitory concentration (MIC) in test [7] was 50 µg/mL (≈ 90.2 µM); in [8], 1.56 µg/mL (≈ 2.82 µM); in test [9] it was 0.049 µg/mL (≈ 0.0883 µM); in [10], 1.56 µg/mL (≈ 2.82 µM); in test [11], 0.781 µg/mL (≈ 1.41 µM); in [12], 6.25 µg/mL (≈ 11.3 µM). Moreover, the MIC in test [13] was found to be 0.098 µg/mL (≈ 0.177 µM); in test [14] it was 0.007 µg/mL (≈ 0.0126 µM); in test [15] it was 0.007 µg/mL (≈ 0.0126 µM); in [16], 0.781 µg/mL (≈ 1.41 µM); in [17], 25 µg/mL (≈ 45.1 µM); in [18], 0.781 µg/mL (≈ 1.41 µM). The figures for the MIC in test [19], in test [20] and in test [21] were 0.195 µg/mL (≈ 0.352 µM), 3.12 µg/mL (≈ 5.63 µM) and 3.12 µg/mL (≈ 5.63 µM), respectively.

In the case of `CO/N=C(/C(=O)N[C@@H]1C(=O)N2C(C(=O)[O-])=C(C[n+]3cccc(-c4cc(CO)nn4C)c3)CS[C@H]12)c1csc(N)n1`, the minimum inhibitory concentration (MIC) in test [1] is 0.049 µg/mL (≈ 0.0838 µM); in test [2], 0.049 µg/mL (≈ 0.0838 µM); in test [3] it was 0.098 µg/mL (≈ 0.168 µM); in test [4], 0.049 µg/mL (≈ 0.0838 µM); in test [5], 0.049 µg/mL (≈ 0.0838 µM); in test [6] it was 0.195 µg/mL (≈ 0.334 µM). The MIC was more than 25 µg/mL in test [7]; 6.25 µg/mL (≈ 10.7 µM) in test [8]; 0.098 µg/mL (≈ 0.168 µM) in [9]; 3.12 µg/mL (≈ 5.35 µM) in test [10]; 0.391 µg/mL (≈ 0.669 µM) in [11]; 25 µg/mL (≈ 42.8 µM) in test [12]. The MIC in test [13] was 0.195 µg/mL (≈ 0.334 µM); in [14], 0.025 µg/mL (≈ 0.0428 µM); in [15] it was 0.049 µg/mL (≈ 0.0838 µM); in [16], 3.12 µg/mL (≈ 5.35 µM); in test [18] it was 3.12 µg/mL (≈ 5.35 µM); in [19] it was 0.781 µg/mL (≈ 1.34 µM). Further, the MIC in test [20] amounted to 6.25 µg/mL (≈ 10.7 µM); in test [21] it was 12.5 µg/mL (≈ 21.4 µM).

Usually MIC stands for the smallest concentration in the dilution series that meets the test's criterion for growth inhibition. A higher MIC goes with a need for much substance.
